Where “and” joins values, the source holds several entries; their conditions need not be identical. Equal values may be shown once. Entries after “also recorded” stand apart in the source; their conditions may differ.

For orientation: IC50 means the point on the concentration scale where inhibition reaches its midpoint. Usually inhibition stands for the share of the control response that was lost under treatment. As usually defined, the % inhibition is the relative decrease from the control value, in per cent. The low end stands for a weak effect, the high end for a strong effect.

The target of data set [1] is T1, CFTR (Homo sapiens, UniProt P13569).
T1 construct: expressed in transfected cells; host or cells: FRT cells
The experiment in a line: Short-circuit current in FRT cells expressing wild type CFTR. The format is cell-based. Conditions: forskolin 20 µM stimulated.
Protocol: Snapwell inserts containing TMEM16A-expressing FRT cells or T84 cells were mounted in Ussing chambers (Physiologic Instruments, San Diego, CA). Activators and inhibitors (herbal formulation, eugenol, ionomycin, tannic acid, forskolin, CFTRinh-172, ATP, Eact, T16Ainh-A01) were added to the apical solution and an equal volume of vehicle was added at the same time to the basolateral solution. […] For FRT cells, the hemichambers were filled with a half-Cl^− solution (apical) and the HCO3 ^−-buffered solution (basolateral), and the basolateral membrane was permeabilized with 250 µg/mL amphotericin B. Cells were bathed for a 10 min stabilization period and aerated with 95% O2/5% CO2 at 37°C or room temperature. Short-circuit current was measured using an EVC4000 Multi-Channel V/I Clamp (World Precision Instruments, Sarasota, FL).

For data set [2], the target named is T2, human TMEM16A (Homo sapiens, UniProt Q5XXA6).
T2 sequence (Q5XXA6 1-986): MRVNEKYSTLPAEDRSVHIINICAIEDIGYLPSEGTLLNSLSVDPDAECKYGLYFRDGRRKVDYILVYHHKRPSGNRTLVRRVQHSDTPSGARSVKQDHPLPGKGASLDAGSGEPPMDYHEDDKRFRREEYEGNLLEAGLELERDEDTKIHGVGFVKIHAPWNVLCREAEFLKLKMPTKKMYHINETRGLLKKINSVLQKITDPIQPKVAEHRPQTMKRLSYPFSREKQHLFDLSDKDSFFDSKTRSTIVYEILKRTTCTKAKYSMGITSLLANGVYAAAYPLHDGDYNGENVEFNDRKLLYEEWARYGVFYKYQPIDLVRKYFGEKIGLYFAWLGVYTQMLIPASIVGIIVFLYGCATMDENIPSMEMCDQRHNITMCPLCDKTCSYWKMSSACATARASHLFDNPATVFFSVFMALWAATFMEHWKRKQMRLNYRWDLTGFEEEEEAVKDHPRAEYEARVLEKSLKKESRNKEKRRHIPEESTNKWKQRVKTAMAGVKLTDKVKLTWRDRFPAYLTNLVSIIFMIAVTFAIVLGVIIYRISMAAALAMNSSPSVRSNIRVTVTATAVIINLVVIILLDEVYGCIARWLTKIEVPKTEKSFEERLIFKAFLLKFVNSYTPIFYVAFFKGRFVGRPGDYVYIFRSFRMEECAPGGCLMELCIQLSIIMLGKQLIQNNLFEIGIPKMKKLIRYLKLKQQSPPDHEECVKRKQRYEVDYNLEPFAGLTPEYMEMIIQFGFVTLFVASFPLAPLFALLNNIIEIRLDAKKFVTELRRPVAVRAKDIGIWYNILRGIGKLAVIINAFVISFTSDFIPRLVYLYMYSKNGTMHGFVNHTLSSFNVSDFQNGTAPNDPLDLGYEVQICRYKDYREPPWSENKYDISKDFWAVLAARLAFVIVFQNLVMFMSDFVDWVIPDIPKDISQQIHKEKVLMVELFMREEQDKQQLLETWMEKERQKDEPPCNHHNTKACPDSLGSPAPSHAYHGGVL
The data set can be described thus: Short-circuit current in TMEM16A-expressing FRT cells. The format is cell-based. On the procedure:
(§1) FRT cells stably expressing human TMEM16A and the halide sensor YFP-H148Q/I152L/F46L were generated as described. Cells were plated in 96-well black-walled microplates (Corning Inc., Corning, NY) at a density of 20,000 cells per well in Coon's modified F12 medium supplemented with 5% fetal calf serum, 2 mM L-glutamine, 100 U/mL penicillin and 100 µg/mL streptomycin. T84 cells were cultured in DMEM/Ham's F-12 (1∶1) medium containing 10% FBS, 100 U/ml penicillin and 100 µg/ml streptomycin. A commercially available Thai herbal formulation (Krisanaklan, Osotspa Inc., Bangkapi, Thailand) consists of an ethanol/water (54∶46) extract in which each 100 mL was obtained from 10 g of Aquilaria crassna bark, 33.3 g of clove flower bud, 2 g of Terminalia triptera Stapf bark and 4.8 g of camphor flower bud. HPLC grade solvents were purchased from Fisher Scientific (Fairlawn, VA) and EMD Chemical Inc. (Philadelphia, PA). Eugenol and eugenol analog 2 were purchased from Sigma-Aldrich (St. Louis, MO). Other eugenol analogs were purchased from Fisher Scientific (Pittsburgh, PA).
(§2) Snapwell inserts containing TMEM16A-expressing FRT cells or T84 cells were mounted in Ussing chambers (Physiologic Instruments, San Diego, CA). Activators and inhibitors (herbal formulation, eugenol, ionomycin, tannic acid, forskolin, CFTRinh-172, ATP, Eact, T16Ainh-A01) were added to the apical solution and an equal volume of vehicle was added at the same time to the basolateral solution. Symmetrical HCO3 ^−-buffered solutions were used for T84 cells. For FRT cells, the hemichambers were filled with a half-Cl^− solution (apical) and the HCO3 ^−-buffered solution (basolateral), and the basolateral membrane was permeabilized with 250 µg/mL amphotericin B. Cells were bathed for a 10 min stabilization period and aerated with 95% O2/5% CO2 at 37°C or room temperature. Short-circuit current was measured using an EVC4000 Multi-Channel V/I Clamp (World Precision Instruments, Sarasota, FL).

Data set [3] concerns mouse ileum. The data set can be described thus: Intestinal smooth muscle contraction, mouse ileal segments ex vivo. The method, then: Wild type CD1 mice (age 8–10 weeks) were killed by avertin overdose (200 mg/kg). The ileum was removed and washed with ice-cold HCO3 ^−-buffered solution. The ends of the ileal segments were tied with silk thread and connected to a force transducer. Ileal segments were equilibrated for 60 min with a resting force of ∼1 mN, with changes of the bathing solution every 15 min. […] Data were recorded using MP100, Biopac digital acquisition system and analyzed using Acknowledge 3.5.7 software.

The conditions of data set [4]: cited from earlier work.
Data set [5] addresses T2, human TMEM16A. The experiment in a line: Plate-reader YFP fluorescence assay of TMEM16A-mediated I- influx in FRT cells. The format is cell-based. On the procedure: as §1, with “HPLC grade solvents were purchased from Fisher Scientific (Fairlawn, VA) and EMD Chemical Inc. (Philadelphia, PA). Eugenol and eugenol analog 2 were purchased from Sigma-Aldrich (St. Louis, MO). Other eugenol analogs were purchased from Fisher Scientific (Pittsburgh, PA).” left out
YFP fluorescence measurements in TMEM16A expressing FRT cells were carried out on a fluorescence plate reader (Optima; BMG Labtech, Durham, NC) equipped with dual syringe pumps and 500±10 nm excitation and 535±15 nm emission filters as described. […] After 10 min incubation, each well was assayed individually for TMEM16A-mediated I^− influx by recording fluorescence continuously (400 ms per point) for 2 s (baseline), followed by addition of 100 µL of a 140 mM I^− solution containing 200 µM ATP. The initial rate of I^− influx was computed from fluorescence data by non-linear regression.

In data set [6] the test system is cytoplasmic Ca2+ elevation in FRT cells. The data set can be described thus: Cytoplasmic Ca2+ measurement (Fluo-4) in FRT cells. In kind it is cell-based. The conditions noted are these: Fluo-4 fluorescence, 10 min incubation. On the procedure:
FRT cells in 96-well plates were loaded with Fluo-4 NW (Invitrogen, Carlsbad, CA) at 48 h after plating. Fluo-4 fluorescence was measured continuously using a FLUOstar Optima fluorescence plate reader (BMG Labtechnologies) equipped with syringe pump for addition of ATP.

Data set [7] relates to hyperpolarization-activated cyclic nucleotide-gated Na+ and K+ channels. Also noted: method as in earlier work. The conditions noted are these: trigeminal ganglion neurons; ref 27 (Yeon et al.); read-out: IC50 for inhibition of HCN channels; cited from earlier work.
Data set [8] relates to TMEM16A. The data set can be described thus: Whole-cell patch-clamp on TMEM16A-expressing FRT cells. In kind it is cell-based, human. Conditions: 150 µM eugenol, 5 µM Eact, ±80 mV. The method, then: Whole-cell recordings were made at room temperature on TMEM16A-expressing FRT cells as described. The pipette solution contained (in mM): 130 CsCl, 0.5 EGTA, 1 MgCl2, 1 Tris-ATP, and10 HEPES (pH 7.2). The bath solution contained (in mM): 140 NMDG-Cl, 1 CaCl2, 1 MgCl2, 10 glucose and 10 HEPES (pH 7.4). TMEM16A was activated by 5 µM Eact and then inhibited by 150 µM eugenol. Whole-cell currents were elicited by applying hyperpolarizing and depolarizing voltage pulses from a holding potential of 0 mV to potentials between −80 mV and +80 mV in 20 mV steps. Currents were digitized, filtered at 5 kHz, and sampled at 1 kHz.
Background: Patch clamp records ionic current or voltage across a cell membrane.

The test system of data set [9] is Ca2+ current in cardiac myocytes. Also noted: method as in PMID 15550789. The conditions noted are these: read-out: IC50 for inhibition of Ca2+ current; cited from earlier work.
Data set [10] deals with tracheal smooth muscle. Also noted: method as in PMID 21077946. The conditions noted are these: read-out: IC50 for inhibition of tracheal smooth muscle contraction; cited from earlier work.
The subject of data set [11] is CaCC in T84 human colonic epithelial cells. The experiment in a line: Short-circuit current in T84 cells (ATP-stimulated native CaCC Cl- current). Conditions: 100 µM tannic acid. In kind it is cell-based. On the procedure:
as §2

[12] abbreviates: rat, oral 40 mg/kg, ref 30 (Lionnet et al.).

T1 sequence (P13569 whole entry, species assumed): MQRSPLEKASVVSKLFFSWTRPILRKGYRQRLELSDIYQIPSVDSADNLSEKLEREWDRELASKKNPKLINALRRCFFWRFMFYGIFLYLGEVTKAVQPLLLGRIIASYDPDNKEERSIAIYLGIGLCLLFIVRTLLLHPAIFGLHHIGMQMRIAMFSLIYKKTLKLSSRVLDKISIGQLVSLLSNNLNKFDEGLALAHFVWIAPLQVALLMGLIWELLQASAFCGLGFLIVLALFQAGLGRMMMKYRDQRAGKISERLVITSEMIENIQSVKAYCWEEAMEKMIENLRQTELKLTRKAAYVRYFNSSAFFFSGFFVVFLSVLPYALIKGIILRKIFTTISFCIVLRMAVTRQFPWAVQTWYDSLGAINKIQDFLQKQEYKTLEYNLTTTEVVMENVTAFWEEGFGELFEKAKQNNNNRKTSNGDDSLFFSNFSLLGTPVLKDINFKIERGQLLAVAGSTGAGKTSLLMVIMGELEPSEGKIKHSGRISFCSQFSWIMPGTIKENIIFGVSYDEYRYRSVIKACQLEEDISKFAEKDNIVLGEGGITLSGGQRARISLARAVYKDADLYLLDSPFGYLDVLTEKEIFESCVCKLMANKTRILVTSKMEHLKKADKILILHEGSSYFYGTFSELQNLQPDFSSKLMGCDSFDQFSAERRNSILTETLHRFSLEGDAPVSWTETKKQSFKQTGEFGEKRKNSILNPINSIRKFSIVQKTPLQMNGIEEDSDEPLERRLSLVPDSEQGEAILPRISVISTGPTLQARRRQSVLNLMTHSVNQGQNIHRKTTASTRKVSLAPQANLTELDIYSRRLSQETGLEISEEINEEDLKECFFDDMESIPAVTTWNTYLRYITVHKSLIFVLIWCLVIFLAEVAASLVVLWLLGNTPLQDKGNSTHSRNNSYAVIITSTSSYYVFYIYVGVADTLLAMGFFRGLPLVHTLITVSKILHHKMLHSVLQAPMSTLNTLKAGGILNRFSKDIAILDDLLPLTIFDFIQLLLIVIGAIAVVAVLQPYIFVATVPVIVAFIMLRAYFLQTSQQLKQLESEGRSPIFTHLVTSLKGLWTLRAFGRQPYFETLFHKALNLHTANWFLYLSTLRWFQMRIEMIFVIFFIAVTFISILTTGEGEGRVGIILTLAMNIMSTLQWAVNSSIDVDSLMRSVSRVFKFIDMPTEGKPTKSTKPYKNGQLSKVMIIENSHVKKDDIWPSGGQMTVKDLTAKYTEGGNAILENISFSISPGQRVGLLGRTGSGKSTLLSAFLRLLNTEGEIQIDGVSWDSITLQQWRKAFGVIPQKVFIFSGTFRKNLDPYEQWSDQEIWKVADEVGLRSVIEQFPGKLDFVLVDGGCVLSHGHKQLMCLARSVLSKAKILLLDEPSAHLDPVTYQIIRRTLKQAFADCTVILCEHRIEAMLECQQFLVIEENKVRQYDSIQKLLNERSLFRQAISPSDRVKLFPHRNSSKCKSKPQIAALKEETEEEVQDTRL

Take `O=C(O)c1ccc(/C=C2\SC(=S)N(c3cccc(C(F)(F)F)c3)C2=O)cc1` [CFTRinh-172, reference compound]: the “inhibition of CFTR Cl- current” value in data set [1] (10 µM CFTRinh-172) is given as “completely inhibited”.
For `CCc1c(C)nc(SCC(=O)Nc2nc(-c3ccc(OC)cc3)cs2)[nH]c1=O` [T16Ainh-A01, reference compound], the “inhibition of TMEM16A Cl- current by 1 µM T16Ainh-A01” value in [2] (1 µM) was roughly 50%. Further, the “inhibition of Eact-stimulated TMEM16A Cl- current” value in [2] (Eact 10 µM, 10 µM T16Ainh-A01) is on record as “completely inhibited; also recorded: totally inhibited”.
Regarding `C=CCc1ccc(O)c(OC)c1` [compound 1, 4-allyl-2-methoxyphenol], the IC50 in [3] (Mus musculus, read-out: IC50 for inhibition of intestinal smooth muscle contraction) was roughly 150 µM; in [7], 157 µM; in [9], roughly 300 µM; in [2] (IC50 for inhibition of TMEM16A Cl- current, Eact (10 µM)-stimulated short-circuit current, FRT cells), 154 µM and ~150 µM; in [10], roughly 600 µM. Moreover, the “inhibition of ileal contractions following activation by Eact” value in [3] (atropine added initially) is “inhibition”. Moreover, the “effect on contraction frequency” value in data set [3] (mouse ileal segments ex vivo) is recorded as “small effect”. For the same compound, the “effect on resting and maximal tone” value in data set [3] (mouse ileal segments ex vivo) is “more marked effect”. Also, the “inhibition of spontaneous intestinal contractions” value in data set [3] (mouse ileal segments ex vivo, listed as Eugenol) is “strong inhibition”; in data set [3] (mouse ileal segments ex vivo, listed as eugenol), “inhibited by eugenol in a dose-dependent manner”. The “serum concentration following intravenous administration” value in data set [4] (intravenous) was 180000 nM. Besides, in data set [4] (setting [12]), the “concentration in brain and spinal cord after oral administration” value is 2800 nM. For the same compound, the “concentration in serum after oral administration” value in data set [4] (setting [12]) was 600 nM. The “serum concentration (similar oral study)” value in data set [4] (rats) was 1500 nM. Also, in [5] (FRT), testing at 200 µM gave an inhibition of 51 ± 7%. For the same compound, the “effect on cytoplasmic Ca2+ in response to ATP” value in data set [6] is given as “did not inhibit”. Moreover, the “effect on CFTR Cl- conductance” value in data set [1] (eugenol up to 1 mM) is on record as “little effect”. Moreover, in data set [8], the “block mechanism of TMEM16A chloride current” value is recorded as “voltage-independent block”. For the same compound, the “extent of inhibition of TMEM16A Cl- conductance” value in data set [2] is “fully inhibited”. The inhibition at 1000 µM in [2] (FRT, read-out: inhibition of TMEM16A at 1 mM) is greater than 95%. Also, the “inhibition of ionomycin-activated TMEM16A Cl- current” value in [2] (eugenol added 5 min prior to 1 µM ionomycin, amphotericin B permeabilized, Cl- gradient) was “concentration-dependent inhibition”.
As to `CCCc1ccc(O)c(OC)c1` [compound 5], the “% inhibition at 200 μM” value in [5] amounted to 38 ± 7%.
With tannic acid, the “inhibition of ATP-stimulated CaCC Cl- current” value in data set [11] is recorded as “completely inhibited”.

The values above are taken from paper PMC3364195, “Fractionation of a Herbal Antidiarrheal Medicine Reveals Eugenol as an Inhibitor of Ca^2+-Activated Cl^− Channel TMEM16A” (PLoS ONE, 2012).
